Like-named read-outs stand apart in the source and are kept apart here.
Legend:
Format in all cases: cell-based, Staphylococcus aureus
[1] = system: biofilm cells of the S. aureus strain (ATCC 6538); experiment: Biofilm analysis by fluorescence microscopy (SYTO-9/PI); conditions: SYTO-9/PI staining, S. aureus ATCC 6538, 24 hours
Experimental: Briefly, 1×10^7 cells were loaded in 96-well plate, and treated with active compounds. Plate was sealed, and incubated for 24 hours at 37°C. Following incubation, plate was washed with sterile distilled water, and cells were stained with […] SYTO-9 and 5 μM PI, for 30 minutes in dark at room temperature. After incubation, the wells were washed again, and air dried. Images were taken, and then visualized by Nikon Eclipse TE2000, USA [23]. Propidium Iodide (PI) staining indicates membrane integrity, as it can only pass through compromised membranes of non-viable cells, giving red fluorescence. On the contrary, Syto-9 can pass through all cells despite of their membrane integrity, and binds to DNA/RNA by emitting green fluorescence.

[2] = system: S. aureus; experiment: Antibacterial activity (bacterial growth inhibition); conditions: at 100 μg/mL
[3] = system: biofilm of S. aureus ATCC 6538; experiment: 96-well plate crystal violet assay for biofilm inhibition; conditions: for inhibition at 3.125 µg/mL / inhibition at 6.25 µg/mL / inhibition at 12.5 µg/mL / inhibition at 25 µg/mL / inhibition at 50 µg/mL / inhibition at 100 µg/mL: Staphylococcus aureus, ATCC6538
Experimental: The quantitative determination of biofilm inhibition was carried out by the crystal violet assay on a sterile 96-well plate with slight modifications. The glycerol stock of S. aureus was revived overnight at 37°C at 80 rpm. The overnight culture was then diluted 100 folds in fresh BHI broth, supplemented with 0.25% glucose. The cell density was adjusted to 1×10^7 and 195μL of the cell suspension was added in 96-well plate. […] Following that, the plate was washed with sterile distilled water in order to decant the non-adherent cells, and media. The plate was then dried at 60°C for 1 hour, and 200 μL of 0.1% (w/v) crystal violet was added to stain biofilm for 20 minutes. The plate was washed again, air dried, and dispensed 30% (v/v) acetic acid in each well to dissolve the biofilm. The inhibition of biofilm formation was analyzed by measuring the absorbance at 595 nm using the microplate reader (Multiskan Sky, Thermo Scientific, USA). The percent inhibition of biofilm formation was calculated via the following formula: 100−ƛTreated−ƛBlank/ƛControl−ƛBlank×100 Whereƛ=absorbance

[4] = system: S. aureus biofilm; experiment: Atomic force microscopy analysis of biofilm disruption; conditions: compared to control S. aureus cells, 24 hours
Experimental: The size and structure of disrupted biofilm was analyzed. Briefly, a pure single colony of S. aureus was inoculated in BHI broth and grown for 18–24 hours at 37°C. Following incubation, the cells were diluted in BHI broth, and density was adjusted to 1×10^7 before loading on a sterile silicon chip placed in 24-well plate, then silicon chips were treated with active compounds. The plate was then sealed, and placed in an incubator for 24 hours at 37°C. After incubation, the treated silicon chips were washed with autoclaved distilled water thrice, air dried, and the samples were analyzed by atomic force microscope (Agilent Technologies, USA).

[5] = S. aureus ATCC 6538, replicate 1, read-out: % Inhibition 1
[6] = S. aureus ATCC 6538, replicate 2, read-out: % Inhibition 2
[7] = S. aureus ATCC 6538, replicate 3, read-out: % Inhibition 3
[8] = S. aureus ATCC 6538, read-out: Mean % Inhibition

`O=c1oc2ccccc2cc1-c1csc(N/N=C/c2cc(Cl)cc(Br)c2)n1` [Compound 17, (E)-3-(2-(2-(3-Bromo-5-chlorobenzylidene)hydrazinyl)thiazol-4-yl)-2H-chromen-2-one] was tested, and the “Biofilm disruption seen by fluorescence microscopy” value [1] was “Disruption on the surface of biofilm”, the inhibition at 100 µg/mL ([2]; Staphylococcus aureus, read-out: Antibacterial Activity (% Inhibition ± SEM)) was 20 ± 4.64% and the “Antibacterial Activity (% Inhibition ± SEM)” value [2] was “low antibacterial effect”. For the same compound, the inhibition at 3.125 µg/mL [3, 5] was 1.64%, the inhibition at 3.125 µg/mL [3, 6] was 1.36% and the inhibition at 3.125 µg/mL [3, 7] was 1.84%. The inhibition at 3.125 µg/mL [3, 8] was 1.61%, the inhibition at 6.25 µg/mL [3, 5] was 3.64% and the inhibition at 6.25 µg/mL [3, 6] was 3.52%. For the same compound, the inhibition at 6.25 µg/mL [3, 7] was 3.97%, the inhibition at 6.25 µg/mL [3, 8] was 3.71% and the inhibition at 12.5 µg/mL [3, 5] was 0.03%. It also gave an inhibition at 12.5 µg/mL [3, 6] of 0.03%, an inhibition at 12.5 µg/mL [3, 7] of 0.01% and an inhibition at 12.5 µg/mL [3, 8] of 0.0233%. The inhibition at 25 µg/mL [3, 5] was 15.9%, the inhibition at 25 µg/mL [3, 6] was 15.1% and the inhibition at 25 µg/mL [3, 7] was 16.9%. The inhibition at 25 µg/mL [3, 8] was 15.9%, the inhibition at 50 µg/mL [3, 5] was 55.1% and the inhibition at 50 µg/mL [3, 6] was 53%. It also gave an inhibition at 50 µg/mL [3, 7] of 57%, an inhibition at 50 µg/mL [3, 8] of 55% and an inhibition at 100 µg/mL ([3]; 100 µg/mL, S. aureus ATCC 6538, replicate 1, read-out: % Inhibition 1) of 77.9%. For the same compound, the inhibition at 100 µg/mL ([3]; 100 µg/mL, S. aureus ATCC 6538, replicate 2, read-out: % Inhibition 2) was 77.6%, the inhibition at 100 µg/mL ([3]; 100 µg/mL, S. aureus ATCC 6538, replicate 3, read-out: % Inhibition 3) was 82.3% and the inhibition at 100 µg/mL ([3]; 100 µg/mL, S. aureus ATCC 6538, read-out: Mean % Inhibition) was 79.3%. The inhibition at 100 µg/mL ([3]; at 100 μg/mL, biofilm of S. aureus, 24 hours, read-out: Antibiofilm Activity (% Inhibition ± SEM)) was 69 ± 1.75%, the “Antibiofilm Activity (% Inhibition ± SEM)” value ([3]; at 100 μg/mL, biofilm of S. aureus, 24 hours) was “high potential to inhibit the biofilms” and the “Biofilm disruption seen by AFM” value [4] was “Disrupted biofilm surfaces”.

Reference: publication PMC11412489, “Coumarin derivatives as new anti-biofilm agents against Staphylococcus aureus” (PLOS ONE, 2024)
